Blank lines part the entries; values can stand above or below the compound they belong to. Activity calls are given as the source filed them. The calls are words filed in the database; no cut-off is given here. *1 amine or outer side, *2 acyl side, *3 side chain or, on linkers, in order; H or OH if unused. Where a SMILES comes first, the peptide text is derived from it. Bridges are numbered along the chain shown (N, C = ends). [ ]: non-standard residue; d: D form. dβ3h(hPhe) = O=C(C[C@@H](CCc1ccccc1)N[*:1])[*:2]; Phe(4-F) = N[C@@H](Cc1ccc(F)cc1)C(=O)O; X1 = CC(C)(CO[*:2])C(=O)C(=O)[*:1]; Pip = O=C(O)[C@@H]1CCCCN1
Legend:
[1] = biological target: T1, Tyrosine-protein phosphatase non-receptor type 2 (Homo sapiens) (UniProt P17706); experiment: Binding affinity to TCPTP (unknown origin) up to 20 uM by fluorescence anisotropic assay
T1 sequence (whole entry): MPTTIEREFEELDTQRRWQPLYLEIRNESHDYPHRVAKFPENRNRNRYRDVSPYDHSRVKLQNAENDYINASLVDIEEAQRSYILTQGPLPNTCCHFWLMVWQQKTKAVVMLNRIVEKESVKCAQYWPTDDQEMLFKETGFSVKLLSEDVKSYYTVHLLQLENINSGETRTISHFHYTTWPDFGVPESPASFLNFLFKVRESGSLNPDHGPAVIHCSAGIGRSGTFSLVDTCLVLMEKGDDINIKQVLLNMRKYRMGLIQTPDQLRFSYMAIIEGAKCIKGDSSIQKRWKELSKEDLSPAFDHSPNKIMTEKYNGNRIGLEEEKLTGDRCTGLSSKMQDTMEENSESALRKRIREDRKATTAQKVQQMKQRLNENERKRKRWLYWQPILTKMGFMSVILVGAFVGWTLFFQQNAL

[2] = Binding affinity to MBP-tagged VP35 (unknown origin) up to 20 uM by fluorescence anisotropic assay
[3] = biological target: Albumin (Bos taurus, UniProt P02769); experiment: Binding affinity to bovine serum albumin up to 20 uM by fluorescence anisotropic assay; settings: cattle
Albumin, sequence (P02769 whole entry, the tested form may be a part): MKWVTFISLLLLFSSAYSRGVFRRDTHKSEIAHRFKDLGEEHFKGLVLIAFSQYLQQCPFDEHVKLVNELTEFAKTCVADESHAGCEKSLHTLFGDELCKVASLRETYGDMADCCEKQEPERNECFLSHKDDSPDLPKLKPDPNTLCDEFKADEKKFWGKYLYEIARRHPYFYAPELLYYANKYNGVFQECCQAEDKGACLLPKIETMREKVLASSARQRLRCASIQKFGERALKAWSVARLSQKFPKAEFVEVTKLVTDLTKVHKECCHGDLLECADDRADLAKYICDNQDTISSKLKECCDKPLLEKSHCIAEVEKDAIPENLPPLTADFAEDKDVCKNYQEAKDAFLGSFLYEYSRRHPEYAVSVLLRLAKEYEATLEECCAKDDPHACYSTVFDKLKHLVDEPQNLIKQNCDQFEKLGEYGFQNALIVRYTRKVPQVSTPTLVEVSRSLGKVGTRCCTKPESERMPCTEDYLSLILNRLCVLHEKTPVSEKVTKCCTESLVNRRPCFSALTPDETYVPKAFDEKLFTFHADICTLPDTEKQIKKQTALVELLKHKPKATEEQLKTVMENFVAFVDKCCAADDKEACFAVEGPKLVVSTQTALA

[4] = biological target: SH2 domain-containing protein 2A (Homo sapiens) (UniProt Q9NP31); experiment: Binding affinity to GST-tagged TSAD SH2 domain (unknown origin) up to 20 uM by fluorescence anisotropic assay
SH2 domain-containing protein 2A (Homo sapiens), sequence (Q9NP31 whole entry, looked up, the tested form may be a part): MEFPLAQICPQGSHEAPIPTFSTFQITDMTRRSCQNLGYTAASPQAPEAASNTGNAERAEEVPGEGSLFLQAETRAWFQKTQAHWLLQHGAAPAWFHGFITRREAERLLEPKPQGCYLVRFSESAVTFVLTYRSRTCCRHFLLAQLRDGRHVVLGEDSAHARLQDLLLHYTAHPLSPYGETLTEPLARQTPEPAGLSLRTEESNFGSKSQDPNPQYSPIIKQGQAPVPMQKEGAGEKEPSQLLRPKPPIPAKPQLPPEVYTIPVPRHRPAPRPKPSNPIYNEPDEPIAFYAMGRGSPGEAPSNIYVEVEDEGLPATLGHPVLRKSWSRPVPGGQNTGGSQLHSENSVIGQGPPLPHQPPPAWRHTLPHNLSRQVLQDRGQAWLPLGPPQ

[5] = test system: GTPase KRas (Homo sapiens), P01116 [G12V]; experiment: Binding affinity to K-Ras G12V mutant (unknown origin) after 2 hrs by fluorescence polarization-based spectrofluorimetric analysis
GTPase KRas (Homo sapiens), P01116 [G12V], sequence (P01116 whole entry G12V): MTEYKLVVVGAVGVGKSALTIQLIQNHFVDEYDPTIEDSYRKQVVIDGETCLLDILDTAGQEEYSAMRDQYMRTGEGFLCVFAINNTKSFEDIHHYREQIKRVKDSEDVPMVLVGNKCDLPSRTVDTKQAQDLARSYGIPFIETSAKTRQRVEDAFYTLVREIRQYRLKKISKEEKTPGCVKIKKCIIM

[6] = biological target: T2, Tyrosine-protein phosphatase non-receptor type 1 (Homo sapiens) (UniProt P18031); experiment: Binding affinity to PTP1B (unknown origin) up to 20 uM by fluorescence anisotropic assay
T2 sequence (whole entry): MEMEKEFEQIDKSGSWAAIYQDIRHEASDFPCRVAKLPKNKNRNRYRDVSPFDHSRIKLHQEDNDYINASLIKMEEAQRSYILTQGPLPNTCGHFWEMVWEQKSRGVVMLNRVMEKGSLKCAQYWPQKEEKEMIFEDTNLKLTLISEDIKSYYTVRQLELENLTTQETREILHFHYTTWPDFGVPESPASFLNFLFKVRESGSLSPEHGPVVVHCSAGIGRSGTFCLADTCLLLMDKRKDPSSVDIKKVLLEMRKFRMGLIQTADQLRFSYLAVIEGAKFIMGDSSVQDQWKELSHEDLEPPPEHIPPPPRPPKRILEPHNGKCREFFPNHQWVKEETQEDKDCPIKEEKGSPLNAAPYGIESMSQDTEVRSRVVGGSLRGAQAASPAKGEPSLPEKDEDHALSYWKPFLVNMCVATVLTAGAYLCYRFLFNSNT

[7] = biological target: GTPase KRas (Homo sapiens, UniProt P01116, G12V); experiment: Inhibition of recombinant HA-tagged K-Ras G12V mutant (unknown origin) assessed as disruption of interaction with GST-tagged Raf-RBD after overnight incubation by HTRF assay
GTPase KRas, sequence (P01116 whole entry G12V): as the sequence (P01116 whole entry G12V) above

[8] = test system: GTPase KRas (Homo sapiens), P01116 [G12V]; experiment: Inhibition of K-Ras G12V mutant (unknown origin) assessed as disruption of interaction with GST-tagged Raf-RBD at 10 uM after 60 mins by fluorescence microscopic-based bead binding assay
[9] = test system: GTPase KRas (Homo sapiens), P01116 [G12V]; experiment: Inhibition of K-Ras G12V mutant in human H358 cells assessed as decrease in Mek phosphorylation up to 16 hrs; format: cell-based
[10] = test system: GTPase KRas (Homo sapiens), P01116 [G12V]; experiment: Binding affinity to K-Ras G12V mutant (unknown origin) by surface plasmon resonance assay
[11] = test system: GTPase KRas (Homo sapiens), P01116 [G12V]; experiment: Inhibition of K-Ras G12V mutant in human A549 cells assessed as decrease in Mek phosphorylation up to 16 hrs; format: cell-based
[12] = test system: GTPase KRas (Homo sapiens), P01116 [G12V]; settings: 10 uM
[13] = test system: GTPase KRas (Homo sapiens), P01116 [G12V]; experiment: Inhibition of K-Ras G12V mutant in human A549 cells assessed as decrease in Erk phosphorylation up to 16 hrs; format: cell-based
[14] = test system: GTPase KRas (Homo sapiens), P01116 [G12V]; experiment: Inhibition of K-Ras G12V mutant (unknown origin) assessed as disruption of interaction with Tiam1 at 10 uM after 60 mins by fluorescence microscopic-based bead binding assay
[15] = test system: GTPase KRas (Homo sapiens), P01116 [G12V]; experiment: Inhibition of K-Ras G12V mutant in human H358 cells assessed as decrease in Erk phosphorylation up to 16 hrs; format: cell-based
[16] = test system: GTPase KRas (Homo sapiens), P01116 [G12V]; experiment: Inhibition of K-Ras G12V mutant (unknown origin) assessed as disruption fluorescein-labeled Raf binding to beads immobilized with K-Ras G12V mutant at 10 uM after 60 mins by fluorescence microscopic-based bead binding assay

SMILES: CC(C)C[C@@H]1NC(=O)[C@H](CCCNC(=N)N)NC(=O)[C@H](CCCNC(=N)N)NC(=O)[C@H](Cc2ccc(O)cc2)NC(=O)[C@H](Cc2ccc(F)cc2)NC(=O)[C@H](CCCNC(=N)N)NC(=O)[C@H](CCC(N)=O)NC(=O)C[C@@H](CCc2ccccc2)NC(=O)[C@@H]2CCCCN2C(=O)C(=O)C(C)(C)COC1=O ([Pip][dβ3h(hPhe)]QR[Phe(4-F)]YRRL; linker N-C via X1)
Activity [1]: inactive
Activity [2]: inactive
Activity [3]: Not Active
Activity [4]: inactive
Activity [5]: inactive
Activity [6]: inactive

SMILES: CC(C)C[C@@H]1NC(=O)[C@H](CCC(=O)O)NC(=O)[C@H](c2ccccc2)NC(=O)[C@@H](Cc2ccccc2)NC(=O)[C@H](CCCN)NC(=O)[C@@H]2CCCN2C(=O)[C@H](CCC(N)=O)NC(=O)C[C@@H](CCc2ccccc2)NC(=O)[C@@H]2CCCCN2C(=O)C(=O)C(C)(C)COC1=O
IC50 [7]: 10000 nM

SMILES: CCCC[C@H]1NC(=O)[C@H](Cc2ccc(F)cc2)NC(=O)[C@H](CCCN=C(N)N)NC(=O)[C@@H](Cc2ccc3ccccc3c2)NC(=O)[C@H](CCCN=C(N)N)NC(=O)[C@H](CCCN=C(N)N)NC(=O)[C@H](CCC(N)=O)NC(=O)C[C@@H](CCc2ccccc2)NC(=O)[C@@H]2CCCCN2C(=O)C(=O)C(C)(C)COC1=O
inhibition [8]: Active
Activity [1]: Active
Activity [2]: Active
Activity [3]: Active
inhibition [9]: inactive
Activity [10]: Active
inhibition [11]: inactive
inhibition [12]: Active
Activity [4]: Active
inhibition [13]: inactive
inhibition [14]: Active
inhibition [15]: inactive
inhibition [16]: Active
Activity [6]: Active

SMILES: CCCC[C@H]1NC(=O)[C@@H](Cc2ccc3ccccc3c2)NC(=O)[C@@H](Cc2ccc3ccccc3c2)NC(=O)[C@@H](CCCCN)NC(=O)[C@H](CCCNC(=N)N)NC(=O)[C@H](Cc2ccc(F)cc2)NC(=O)[C@H](CCC(N)=O)NC(=O)C[C@@H](CCc2ccccc2)NC(=O)[C@@H]2CCCCN2C(=O)C(=O)C(C)(C)COC1=O
IC50 [7]: 10000 nM

SMILES: C[C@@H]1NC(=O)[C@H](Cc2ccc(O)cc2)NC(=O)[C@H](CCCNC(=N)N)NC(=O)[C@@H]([C@H](C)O)NC(=O)CNC(=O)[C@H](CCC(N)=O)NC(=O)C[C@@H](CCc2ccccc2)NC(=O)[C@@H]2CCCCN2C(=O)C(=O)C(C)(C)COC(=O)[C@H](Cc2ccccc2)NC1=O
IC50 [7]: 2300 nM

SMILES: CC(C)C[C@@H]1NC(=O)[C@@H](Cc2ccc3ccccc3c2)NC(=O)[C@H](CCCNC(=N)N)NC(=O)[C@@H](C(C)C)NC(=O)[C@H](CCCNC(=N)N)NC(=O)[C@H](C)NC(=O)[C@H](CCC(N)=O)NC(=O)C[C@@H](CCc2ccccc2)NC(=O)[C@@H]2CCCCN2C(=O)C(=O)C(C)(C)COC1=O
IC50 [7]: 2000 nM

SMILES: CC1(C)COC(=O)[C@H](Cc2ccccc2)NC(=O)[C@H](CCCNC(=N)N)NC(=O)[C@H](Cc2ccc(O)cc2)NC(=O)[C@@H]2CCCN2C(=O)[C@H](Cc2ccc(O)cc2)NC(=O)[C@@H](Cc2ccccc2)NC(=O)[C@H](CCC(N)=O)NC(=O)C[C@@H](CCc2ccccc2)NC(=O)[C@@H]2CCCCN2C(=O)C1=O
IC50 [7]: 10000 nM

Next, values leading:

IC50 [7]: 1200 nM
SMILES: CC(C)[C@@H]1NC(=O)[C@@H](CC(N)=O)NC(=O)[C@H](CCCNC(=N)N)NC(=O)[C@H](CCCNC(=N)N)NC(=O)[C@H](Cc2ccc(F)cc2)NC(=O)[C@H](Cc2ccc(O)cc2)NC(=O)[C@H](CCC(N)=O)NC(=O)C[C@@H](CCc2ccccc2)NC(=O)[C@@H]2CCCCN2C(=O)C(=O)C(C)(C)COC1=O

IC50 [7]: 1800 nM
SMILES: CC1(C)COC(=O)[C@H](Cc2ccccc2)NC(=O)[C@H](CCCNC(=N)N)NC(=O)CNC(=O)[C@H](Cc2ccc(O)cc2)NC(=O)[C@@H](Cc2ccc3ccccc3c2)NC(=O)[C@H](CCCN)NC(=O)[C@H](CCC(N)=O)NC(=O)C[C@@H](CCc2ccccc2)NC(=O)[C@@H]2CCCCN2C(=O)C1=O

IC50 [7]: 1100 nM
SMILES: CC1(C)COC(=O)[C@H](Cc2ccccc2)NC(=O)[C@H](CCCNC(=N)N)NC(=O)[C@@H](Cc2ccc3ccccc3c2)NC(=O)[C@H](CCCNC(=N)N)NC(=O)[C@@H](Cc2ccccc2)NC(=O)[C@H](CCCN=C(N)N)NC(=O)[C@H](CCC(N)=O)NC(=O)C[C@@H](CCc2ccccc2)NC(=O)[C@@H]2CCCCN2C(=O)C1=O

Reference: ChEMBL document CHEMBL3217533, “Inhibition of Ras-Effector Interaction by Cyclic Peptides” (Medchemcomm, 2013)
